According to patent US11643403B2 (ILDONG PHARMACEUTICAL CO., LTD., priority 2019, dated 2023):

Assays:
[1] = molecular target: GLP-1 receptor CHO-K1 cells (Homo sapiens (Human), UniProt P43220); experiment: cAMP assay (HTRF, CISBIO kit); type: cell-based; details: for Emax: CHO-K1, cAMP stimulation ratio, Exendin-4 = 100%
Protocol: A cAMP assay test was performed according to a method optimized based on a protocol provided by a cAMP assay kit manufacturer (CISBIO). […] The cells were incubated at room temperature for 7 minutes. A cAMP-d2 conjugate reagent was prepared by mixing a cAMP conjugate with an elution buffer at a ratio of 1:4. An anti-cAMP cryptate conjugate reagent was prepared by mixing a […] with an elution buffer at a ratio of 1:4. Then, […] of the cAMP-d2 conjugate reagent was added to each of the wells. Subsequently, […] of the anti-cAMP cryptate conjugate reagent was added to each of the wells.

[2] = Intravenous glucose tolerance test (ivGTT) via oral administration, plasma insulin ELISA; type: in vivo; details: test substance 50 mg/5 mL/kg orally 60 minutes before glucose […] iv, maximum plasma insulin
Protocol: Before performing the ivGTT, the monkeys to be used in the test were fasted for 16 hours. After the fasting, fasting blood sugar was measured on the day of the test, and then the monkeys were grouped to minimize blood sugar deviation. On 60 minutes before glucose administration (−60 minutes), each of the monkeys was fixed on a correction chair, and the test substance (50 mg/5 mL/kg) was administered orally using a catheter for oral administration. The monkey fixed on the correction chair was anesthetized, and glucose (0.25 g/kg, 50% dextrose solution 0.5 mL/kg) was intravenously administered through a tube catheter inserted into the vein. […] The separated plasma samples were stored in a frozen state until insulin analysis.
(§1) The frozen plasma samples were slowly thawed on ice. An ELISA test was performed according to a protocol provided with a Monkey insulin ELISA kit (LSBio, Cat No. LS-F10306). An insulin concentration was calculated by drawing a standard curve using the absorbance of the insulin standard and applying the absorbance of each measured sample thereto.

[3] = Intravenous glucose tolerance test (ivGTT) via intravenous administration, plasma insulin ELISA; type: in vivo; details: test substance 1 mg/mL/kg intravenously, maximum plasma insulin
Protocol: Before the intravenous glucose tolerance test (ivGTT) was performed, monkeys to be used in the test were fasted for 16 hours. After the fasting, fasting blood sugar was measured on the day of the test, and the monkeys were grouped to minimize blood sugar deviation. Each of the monkeys was fixed on a correction chair and anesthetized. A tube catheter was inserted into a saphenous vein of the monkey immediately before glucose administration (0 minute), and the test substance (1 mg/mL/kg) was administered intravenously. After the drug administration, glucose (0.25 g/kg, 50% dextrose solution 0.5 mL/kg) was intravenously administered through the tube catheter inserted into the vein. […] The separated plasma samples were stored in a frozen state until insulin analysis.
as §1

[4] = molecular target: hERG (human ether-a-go-go related gene) potassium channel (Homo sapiens (Human), UniProt Q12809); experiment: hERG analysis, automatic whole-cell patch clamp (QPatch 48 HT); type: cell-based; details: hERG-expressing CHO-K1 cell line, 1-100 μM, room temperature
Protocol: The inhibition of activity of hERG (human ether-a-go-go related gene) potassium channel by the compounds was evaluated by using an automatic whole-cell patch clamp system (QPatch 48 HT, Sophion Bioscience) that can directly measure the flow of ions through the potassium channel in cells. A CHO-K1 cell line stably expressing human hERG cDNA (Kv11.1, KCNH2) was used. The composition of the intracellular solution (mM) used for the analysis is 70 KF, 60 KCl, 15 NaCl, 5 HEPES, 5 EGTA, 5 MgATP, pH 7.3 by KOH.
The hERG-expressing CHO-K1 cell line was treated with each compound at five concentrations (1, 3, 10, 30 and 100 μM), and incubated with each test concentration for 5 minutes in duplicate. All experiments were conducted at room temperature. Change in current amplitude through the hERG channel was recorded every 8 seconds.
Stock solution for each compound is prepared in DMSO at 300× the final assay concentrations, and stored at −20° C. until the day of assay. On the day of the experiment, the stock was diluted into an extracellular solution to make final treatment concentration.
The change in hERG current before and after treatment with the test substance was recorded using the automatic whole cell patch clamp, and the hERG inhibition percentage (%) was calculated based on the control group.
In this calculation, an inhibitor dose-response curve analyzed by using a curve fitting program that uses a 4-parameter logistic dose response equation was used.

Sequence of GLP-1 receptor CHO-K1 cells (P43220 24-463): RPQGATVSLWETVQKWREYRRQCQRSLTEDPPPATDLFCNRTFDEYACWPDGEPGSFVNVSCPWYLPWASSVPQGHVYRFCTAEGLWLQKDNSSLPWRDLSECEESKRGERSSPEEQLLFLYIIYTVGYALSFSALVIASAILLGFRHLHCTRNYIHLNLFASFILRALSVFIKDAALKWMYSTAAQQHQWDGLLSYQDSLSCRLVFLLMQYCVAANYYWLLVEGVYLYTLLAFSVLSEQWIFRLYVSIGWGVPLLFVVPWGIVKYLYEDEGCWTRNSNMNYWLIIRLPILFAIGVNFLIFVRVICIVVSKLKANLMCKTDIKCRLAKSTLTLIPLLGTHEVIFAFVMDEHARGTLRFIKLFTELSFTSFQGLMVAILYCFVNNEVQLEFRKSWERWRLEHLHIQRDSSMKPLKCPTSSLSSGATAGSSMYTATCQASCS
Sequence of hERG (human ether-a-go-go related gene) potassium channel (Q12809 whole entry): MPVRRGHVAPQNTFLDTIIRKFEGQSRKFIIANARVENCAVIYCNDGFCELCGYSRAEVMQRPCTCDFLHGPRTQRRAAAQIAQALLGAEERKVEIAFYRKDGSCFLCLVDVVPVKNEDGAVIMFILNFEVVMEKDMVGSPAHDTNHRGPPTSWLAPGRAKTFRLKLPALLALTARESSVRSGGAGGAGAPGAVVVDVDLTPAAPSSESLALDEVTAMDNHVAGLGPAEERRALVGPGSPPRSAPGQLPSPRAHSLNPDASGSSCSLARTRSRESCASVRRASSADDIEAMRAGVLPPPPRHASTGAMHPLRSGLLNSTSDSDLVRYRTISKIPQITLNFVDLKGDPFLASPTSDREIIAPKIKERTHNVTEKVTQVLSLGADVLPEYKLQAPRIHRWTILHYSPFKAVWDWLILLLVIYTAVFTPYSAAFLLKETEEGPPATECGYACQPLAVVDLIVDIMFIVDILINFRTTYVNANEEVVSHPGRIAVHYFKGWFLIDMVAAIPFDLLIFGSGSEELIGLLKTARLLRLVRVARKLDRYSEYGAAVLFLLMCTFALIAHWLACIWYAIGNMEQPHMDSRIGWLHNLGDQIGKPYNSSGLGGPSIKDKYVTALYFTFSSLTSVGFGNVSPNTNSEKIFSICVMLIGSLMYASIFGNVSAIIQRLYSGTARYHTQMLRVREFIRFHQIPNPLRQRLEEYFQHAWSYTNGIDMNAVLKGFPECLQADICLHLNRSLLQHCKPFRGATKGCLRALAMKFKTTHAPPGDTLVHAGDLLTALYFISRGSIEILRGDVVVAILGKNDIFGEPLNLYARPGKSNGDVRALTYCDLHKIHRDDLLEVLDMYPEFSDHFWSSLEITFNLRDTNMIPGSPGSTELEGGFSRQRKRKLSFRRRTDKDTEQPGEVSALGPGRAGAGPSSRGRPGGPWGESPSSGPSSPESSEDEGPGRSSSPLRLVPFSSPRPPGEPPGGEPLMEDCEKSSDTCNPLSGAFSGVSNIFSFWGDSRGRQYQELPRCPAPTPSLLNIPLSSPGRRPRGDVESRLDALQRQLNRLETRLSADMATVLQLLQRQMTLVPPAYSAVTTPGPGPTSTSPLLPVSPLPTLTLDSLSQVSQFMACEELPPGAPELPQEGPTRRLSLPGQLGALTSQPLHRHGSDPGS

EC50 [1] [nM] | Emax [1] [%] | Structure (SMILES) | Monkey ivGTT (po) insulinmax [2] | Monkey ivGTT (iv) insulinmax (IU/mL) [3] | IC50 [4] [nM]
< 50 | 108 | N#Cc1ccc(COc2cccc(N3CCN(Cc4nc5ccc(C(=O)O)cc5n4C[C@@H]4CCO4)CC3)n2)nc1 [Example 2, (S)-2-((4-(6-((5-cyanopyridin-2-yl)methoxy)pyridin-2-yl)piperazin-1-yl)methyl)-1-(oxetan-2-ylmethyl)-1H-benzo [d]imidazole-6-carboxylic acid] | ++ (a maximum insulin concentration is greater than 100 IU/mL) | – | > 100000
50 to 100 | 111 | N#Cc1ccc(COc2cccc(N3CCN(Cc4nc5ccc(C(=O)O)nc5n4C[C@@H]4CCO4)CC3)n2)nc1 [Example 5, (S)-2-((4-(6-((5-cyanopyridin-2-yl)methoxy)pyridin-2-yl)piperazin-1-yl)methyl)-3-(oxetane-2-ylmethyl)-3H-imidazo[4,5-b]pyridine-5-carboxylic acid] | – | – | –
< 50 | 128 | N#Cc1ccc(COc2cccc(N3CCN(Cc4nc5ccc(C(=O)O)nc5n4C[C@@H]4CCO4)CC3)c2)nc1 [Example 13, (S)-2-((4-(3-((5-cyanopyridin-2-yl)methoxy)phenyl)piperazin-1-yl)methyl)-3-(oxetan-2-ylmethyl)-3H-imidazo[4,5-b]pyridine-5-carboxylic acid] | – | + (a maximum insulin concentration is 200˜250 IU/mL) | > 100000

Second part, the compound before the results:

Structure (SMILES) | EC50 [1] [nM] | Emax [1] [%] | Monkey ivGTT (po) insulinmax [2] | Monkey ivGTT (iv) insulinmax (IU/mL) [3] | IC50 [4] [nM]
C[C@H]1CN(c2cccc(OCc3ccc(C#N)cn3)n2)CCN1Cc1nc2ccc(C(=O)O)cc2n1C[C@@H]1CCO1 [Example 1, 2-(((S)-4-(6-((5-cyanopyridin-2-yl)methoxy)pyridin-2-yl)-2-methylpiperazin-1-yl)methyl)-1-(((S)-oxetan-2-yl)methyl)-1H-benzo[d]imidazole-6-carboxylic acid] | < 50 | 104 | + (a maximum insulin concentration is 50˜100 IU/mL) | ++ (a maximum insulin concentration is greater than 250 IU/mL) | > 100000
C[C@H]1CN(c2cccc(OCc3ccc(C#N)cn3)n2)CCN1Cc1nc2ccc(C(=O)O)nc2n1C[C@@H]1CCO1 [Example 6, 2-(((S)-4-(6-((5-cyanopyridin-2-yl)methoxy)pyridin-2-yl)-2-methylpiperazin-1-yl)methyl)-3-(((S)-oxetan-2-yl)methyl)-3H-imidazo[4,5-b]pyridine-5-carboxylic acid] | – | – | + (a maximum insulin concentration is 50˜100 IU/mL) | ++ (a maximum insulin concentration is greater than 250 IU/mL) | > 100000
O=C(O)c1ccc2nc(CN3CCC(c4cccc(OCc5ncc(Cl)cc5F)c4)CC3)n(C[C@@H]3CCO3)c2c1 [Example 10, (S)-2-((4-(3-((5-chloro-3-fluoropyridin-2-yl)methoxy)phenyl)piperidin-1-yl)methyl)-1-(oxetane-2-ylmethyl)-1H-benzo[d]imidazole-6-carboxylic acid] | 50 to 100 | 96.4 | – | – | –
N#Cc1ccc(COc2cccc(N3CCN(Cc4nc5ccc(C(=O)O)cc5n4C[C@@H]4CCO4)CC3)c2)nc1 [Example 14, (S)-2-((4-(3-((5-cyanopyridin-2-yl)methoxy)phenyl)piperazin-1-yl)methyl)-1-(oxetan-2-ylmethyl)-1H-benzo[d]imidazole-6-carboxylic acid] | < 50 | 91.4 | – | + (a maximum insulin concentration is 200˜250 IU/mL) | > 100000
O=C(O)c1ccc2nc(CN3CCN(c4cccc(OCc5ncc(Cl)cc5F)n4)CC3)n(C[C@@H]3CCO3)c2c1 [Example 16, (S)-2-((4-(6-((5-chloro-3-fluoropyridin-2-yl)methoxy)pyridin-2-yl)piperazin-1-yl)methyl)-1-(oxetan-2-ylmethyl)-1H-benzo[d]imidazole-6-carboxylic acid] | < 50 | 102 | – | – | > 100000
O=C(O)c1ccc2nc(CN3CCN(c4cccc(OCc5ccc(Cl)cn5)n4)CC3)n(C[C@@H]3CCO3)c2c1 [Example 17, (S)-2-((4-(6-((5-chloropyridin-2-yl)methoxy)pyridin-2-yl)piperazin-1-yl)methyl)-1-(oxetane-2-ylmethyl)-1H-benzo [d]imidazole-6-carboxylic acid] | < 50 | 101 | – | + (a maximum insulin concentration is 200˜250 IU/mL) | > 100000
